Reference: patent publication US10918651B2, “Method for lowering thyrotropin levels in adults” (University of Louisiana at Lafayette, priority 2016, dated 2021)

Key:
[1] = test system: dopamine receptors; conditions: chronic administration, aging mice; cited from earlier work
[2] = test system: thyroid stimulating hormone (TSH)
Procedure: A study was performed of this invention using forty-eight male college-aged volunteers. The participants were divided into 4 groups of 12 subjects. The groups reported to the lab after an overnight fast and were then administered the following: 200 mg of Caffeine, 250 mg of A-GPC, 500 mg of A-GPC or placebo. One hour and two hours post administration blood was drawn from a vein in the antecubital space into a serum separator tube, this was allowed to stand for 15 minutes, then centrifuged and the serum drawn off and frozen at −35 degrees Celsius for later evaluation.
At the conclusion of data collection, the serum aliquots were thawed and a commercially available high-sensitivity ELISA was uses to quantify TSH levels (Eagle Biosciences TSH Ultrasensitive ELISA kit). Samples were tested in duplicate with inter and intra place CV % of less than 10. A repeated measures Anova was used to assess TSH level by group.

[3] = in vivo; cited from earlier work

SMILES	dopamine receptors in the brain [1]	TSH blood levels (effect) ([2]; 250 mg A-GPC, single administration)	TSH level, group average ([2]; 500 mg A-GPC group, 12 males)	number of males exhibiting TSH levels lower than 2.0 ([2]; 500 mg A-GPC group, 12 males)	crossing the blood brain barrier [3]	incorporation into brain phospholipids after administration [3]
C[N+](C)(C)CCOP(=O)(O)OP(=O)([O-])OC[C@H]1O[C@@H](n2ccc(N)nc2=O)[C@H](O)[C@@H]1O [CDP-choline]	increase dopamine receptors in the brain	–	–	–	–	–
C[N+](C)(C)CCOP(=O)([O-])OC[C@H](O)CO [A-GPC, Alpha Glycerylphosphoryl Choline]	–	insufficient to reduce blood TSH	2.3	5 of the 12	capable of crossing the blood brain barrier	incorporated into brain phospholipids within twenty-four hours
